Experimental data: ChEMBL document CHEMBL1152860, “Synthesis and antiproliferative activity of 3-amino-N-phenyl-1H-indazole-1-carboxamides” (2009)
Active and inactive are the calls of the source. No cut-off for these calls is given here.

Tests used:
HT-29 = assay: Growth inhibition of human HT-29 cells after 48 hrs by SRB assay; format: functional; conditions: HT-29, 48 h
HL-60(TB) = assay: Growth inhibition of human HL-60(TB) cells after 48 hrs by SRB assay; format: functional; conditions: HL-60, 48 h
K562 [1] = assay: Growth inhibition of human K562 cells after 48 hrs by SRB assay; format: functional; conditions: K562, 48 h
MOLT-4 = assay: Growth inhibition of human MOLT4 cells after 48 hrs by SRB assay; format: functional; conditions: MOLT-4, 48 h
RPMI-8226 = assay: Growth inhibition of human RPMI8226 cells after 48 hrs by SRB assay; format: functional; conditions: RPMI-8226, 48 h
SR = assay: Growth inhibition of human SR cells after 48 hrs by SRB assay; format: functional
A549 = assay: Growth inhibition of human A549 cells after 48 hrs by SRB assay; format: functional; conditions: A549, 48 h
EKVX = assay: Growth inhibition of human EKVX cells after 48 hrs by SRB assay; format: functional
HOP-62 = assay: Growth inhibition of human HOP62 cells after 48 hrs by SRB assay; format: functional; conditions: HOP-62, 48 h
HOP-92 = assay: Growth inhibition of human HOP92 cells after 48 hrs by SRB assay; format: functional; conditions: HOP-92, 48 h
NCI-H226 = assay: Growth inhibition of human NCI-H226 cells after 48 hrs by SRB assay; format: functional; conditions: NCI-H226, 48 h
NCI-H23 = assay: Growth inhibition of human NCI-H23 cells after 48 hrs by SRB assay; format: functional; conditions: NCI-H23, 48 h
NCI-H322M = assay: Growth inhibition of human NCI-H322M cells after 48 hrs by SRB assay; format: functional
NCI-H460 = assay: Growth inhibition of human NCI-H460 cells after 48 hrs by SRB assay; format: functional; conditions: NCI-H460, 48 h
NCI-H522 = assay: Growth inhibition of human NCI-H522 cells after 48 hrs by SRB assay; format: functional; conditions: NCI-H522, 48 h
COLO 205 = assay: Growth inhibition of human COLO205 cells after 48 hrs by SRB assay; format: functional; conditions: COLO 205, 48 h
HCC 2998 = assay: Growth inhibition of human HCC2998 cells after 48 hrs by SRB assay; format: functional; conditions: HCC 2998, 48 h
HCT-116 = assay: Growth inhibition of human HCT116 cells after 48 hrs by SRB assay; format: functional; conditions: HCT-116, 48 h
HCT-15 = assay: Growth inhibition of human HCT15 cells after 48 hrs by SRB assay; format: functional; conditions: HCT-15, 48 h
LOX IMVI = assay: Growth inhibition of human LOXIMVI cells after 48 hrs by SRB assay; format: functional
Malme-3M = assay: Growth inhibition of human MALME-3M cells after 48 hrs by SRB assay; format: functional
M14 = assay: Growth inhibition of human M14 cells after 48 hrs by SRB assay; format: functional; conditions: M14, 48 h
SK-MEL-2 = assay: Growth inhibition of human SK-MEL-2 cells after 48 hrs by SRB assay; format: functional; conditions: SK-MEL-2, 48 h
SK-MEL-28 = assay: Growth inhibition of human SK-MEL-28 cells after 48 hrs by SRB assay; format: functional; conditions: SK-MEL-28, 48 h
SK-MEL-5 = assay: Growth inhibition of human SK-MEL-5 cells after 48 hrs by SRB assay; format: functional; conditions: SK-MEL-5, 48 h
UACC-257 = assay: Growth inhibition of human UACC257 cells after 48 hrs by SRB assay; format: functional; conditions: UACC-257, 48 h
UACC-62 = assay: Growth inhibition of human UACC62 cells after 48 hrs by SRB assay; format: functional; conditions: UACC-62, 48 h
IGROV-1 = assay: Growth inhibition of human IGROV1 cells after 48 hrs by SRB assay; format: functional; conditions: IGROV-1, 48 h
OVCAR-3 = assay: Growth inhibition of human OVCAR-3 cells after 48 hrs by SRB assay; format: functional; conditions: OVCAR-3, 48 h
OVCAR-4 = assay: Growth inhibition of human OVCAR4 cells after 48 hrs by SRB assay; format: functional; conditions: OVCAR-4, 48 h
OVCAR-5 = assay: Growth inhibition of human OVCAR5 cells after 48 hrs by SRB assay; format: functional; conditions: OVCAR-5, 48 h
OVCAR-8 = assay: Growth inhibition of human OVCAR8 cells after 48 hrs by SRB assay; format: functional; conditions: OVCAR-8, 48 h
SK-OV-3 = assay: Growth inhibition of human SKOV3 cells after 48 hrs by SRB assay; format: functional; conditions: SK-OV-3, 48 h
786-0 = assay: Growth inhibition of human 786-0 cells after 48 hrs by SRB assay; format: functional; conditions: 786-0, 48 h
A498 = assay: Growth inhibition of human A498 cells after 48 hrs by SRB assay; format: functional; conditions: A498, 48 h
ACHN = assay: Growth inhibition of human ACHN cells after 48 hrs by SRB assay; format: functional
CAKI-1 = assay: Growth inhibition of human Caki1 cells after 48 hrs by SRB assay; format: functional; conditions: CAKI-1, 48 h
RXF 393 = assay: Growth inhibition of human […] cells after 48 hrs by SRB assay; format: functional; conditions: RXF 393, 48 h
SN12C = assay: Growth inhibition of human SN12C cells after 48 hrs by SRB assay; format: functional
TK-10 = assay: Growth inhibition of human TK10 cells after 48 hrs by SRB assay; format: functional; conditions: TK-10, 48 h
UO-31 = assay: Growth inhibition of human UO31 cells after 48 hrs by SRB assay; format: functional; conditions: UO-31, 48 h
PC-3 = assay: Growth inhibition of human PC3 cells after 48 hrs by SRB assay; format: functional; conditions: PC-3, 48 h
DU-145 = assay: Growth inhibition of human DU145 cells after 48 hrs by SRB assay; format: functional; conditions: DU-145, 48 h
MCF7 = assay: Growth inhibition of human MCF7 cells after 48 hrs by SRB assay; format: functional; conditions: MCF7, 48 h
NCI/ADR-RES = assay: Growth inhibition of human NCI/ADR-RES cells after 48 hrs by SRB assay; format: functional
MDA-MB-231 = assay: Growth inhibition of human MDA-MB-231 cells after 48 hrs by SRB assay; format: functional; conditions: MDA-MB-231, 48 h
[2] = Growth inhibition of human Hs 578T cells after 48 hrs by SRB assay; format: functional
MDA-MB-435 = assay: Growth inhibition of human MDA-MB-435 cells after 48 hrs by SRB assay; format: functional; conditions: MDA-MB-435, 48 h
BT-549 = assay: Growth inhibition of human BT549 cells after 48 hrs by SRB assay; format: functional; conditions: BT-549, 48 h
T47D = assay: Growth inhibition of human T47D cells after 48 hrs by SRB assay; format: functional
K562 [3] = assay: Cell cycle arrest in human K562 cells assessed as accumulation at S phase at 140 uM after 24 hrs using propidium iodide staining by flow cytometry; format: functional, cell-based
K562 [4] = assay: Cell cycle arrest in human K562 cells assessed as accumulation at G2/M phase at 140 uM after 24 hrs using propidium iodide staining by flow cytometry; format: functional, cell-based
KM12 = assay: Growth inhibition of human KM12 cells after 48 hrs by SRB assay; format: functional; conditions: KM12, 48 h
SW-620 = assay: Growth inhibition of human SW620 cells after 48 hrs by SRB assay; format: functional; conditions: SW-620, 48 h
SF-268 = assay: Growth inhibition of human SF268 cells after 48 hrs by SRB assay; format: functional; conditions: SF-268, 48 h
SF-295 = assay: Growth inhibition of human SF295 cells after 48 hrs by SRB assay; format: functional; conditions: SF-295, 48 h
SF-539 = assay: Growth inhibition of human SF539 cells after 48 hrs by SRB assay; format: functional; conditions: SF-539, 48 h
SNB-19 = assay: Growth inhibition of human SNB19 cells after 48 hrs by SRB assay; format: functional; conditions: SNB-19, 48 h
SNB-75 = assay: Growth inhibition of human SNB75 cells after 48 hrs by SRB assay; format: functional; conditions: SNB-75, 48 h
U-251 = assay: Growth inhibition of human U251 cells after 48 hrs by SRB assay; format: functional; conditions: U-251, 48 h
[5] = read-out: LC50 (the source's name)

O=C(Nc1cc(C(F)(F)F)ccc1F)Nc1n[nH]c2ccccc12
GI50 (HT-29): > 100 µM | GI50 (HL-60(TB)): > 100 µM | GI50 (K562 [1]): > 100 µM | GI50 (MOLT-4): > 100 µM | GI50 (RPMI-8226): > 100 µM | GI50 (SR): 55.4 µM | GI50 (A549): > 100 µM | GI50 (EKVX): > 100 µM | GI50 (HOP-62): > 100 µM | GI50 (HOP-92): > 100 µM | GI50 (NCI-H226): > 100 µM | GI50 (NCI-H23): > 100 µM | GI50 (NCI-H322M): > 100 µM | GI50 (NCI-H460): > 100 µM | GI50 (NCI-H522): > 100 µM | GI50 (COLO 205): > 100 µM | GI50 (HCC 2998): > 100 µM | GI50 (HCT-116): > 100 µM | GI50 (HCT-15): > 100 µM | GI50 (LOX IMVI): > 100 µM | GI50 (Malme-3M): > 100 µM | GI50 (M14): > 100 µM | GI50 (SK-MEL-2): > 100 µM | GI50 (SK-MEL-28): > 100 µM | GI50 (SK-MEL-5): > 100 µM | GI50 (UACC-257): > 100 µM | GI50 (UACC-62): > 100 µM | GI50 (IGROV-1): 0.758 µM | TGI (IGROV-1): > 100 µM | CC50 (IGROV-1; [5]): > 100 µM | GI50 (OVCAR-3): > 100 µM | GI50 (OVCAR-4): > 100 µM | GI50 (OVCAR-5): > 100 µM | GI50 (OVCAR-8): > 100 µM | GI50 (SK-OV-3): > 100 µM | GI50 (786-0): > 100 µM | GI50 (A498): > 100 µM | GI50 (ACHN): > 100 µM | GI50 (CAKI-1): > 100 µM | GI50 (RXF 393): > 100 µM | GI50 (SN12C): > 100 µM | GI50 (TK-10): > 100 µM | GI50 (UO-31): > 100 µM | GI50 (PC-3): > 100 µM | GI50 (DU-145): > 100 µM | GI50 (MCF7): 18.2 µM | GI50 (NCI/ADR-RES): > 100 µM | GI50 (MDA-MB-231): > 100 µM | GI50 [2]: > 100 µM | GI50 (MDA-MB-435): > 100 µM | GI50 (BT-549): > 100 µM | GI50 (T47D): 0.215 µM | TGI (T47D): > 100 µM | CC50 (T47D; [5]): > 100 µM | Activity (K562 [3]): Active | Activity (K562 [4]): Active | GI50 (KM12): > 100 µM | GI50 (SW-620): > 100 µM | GI50 (SF-268): > 100 µM | GI50 (SF-295): > 100 µM | GI50 (SF-539): > 100 µM | GI50 (SNB-19): > 100 µM | GI50 (SNB-75): 40.1 µM | GI50 (U-251): > 100 µM
